Common to all, as to design: scale not given: the % may be the effect or the level left
Data set [1] has as its target T1, MRP5 (ATP-binding cassette sub-family C member 5) (Homo sapiens, UniProt O15440). Briefly: TP_TRANSPORTER: inhibition of alaninyl-d4TMP by Prostaglandin E1 at a concentration of 20uM in membrane vesicle from MRP5-expressing HEK293 cell. In kind it is functional, cell membranes. The settings on record: membrane vesicles from MRP5-expressing HEK293 cells, probe alaninyl-d4TMP, read-out: Activity.

The target of data set [2] is T2, ATP-binding cassette sub-family C member 4 (Homo sapiens, UniProt O15439).
T2 sequence (O15439 whole entry): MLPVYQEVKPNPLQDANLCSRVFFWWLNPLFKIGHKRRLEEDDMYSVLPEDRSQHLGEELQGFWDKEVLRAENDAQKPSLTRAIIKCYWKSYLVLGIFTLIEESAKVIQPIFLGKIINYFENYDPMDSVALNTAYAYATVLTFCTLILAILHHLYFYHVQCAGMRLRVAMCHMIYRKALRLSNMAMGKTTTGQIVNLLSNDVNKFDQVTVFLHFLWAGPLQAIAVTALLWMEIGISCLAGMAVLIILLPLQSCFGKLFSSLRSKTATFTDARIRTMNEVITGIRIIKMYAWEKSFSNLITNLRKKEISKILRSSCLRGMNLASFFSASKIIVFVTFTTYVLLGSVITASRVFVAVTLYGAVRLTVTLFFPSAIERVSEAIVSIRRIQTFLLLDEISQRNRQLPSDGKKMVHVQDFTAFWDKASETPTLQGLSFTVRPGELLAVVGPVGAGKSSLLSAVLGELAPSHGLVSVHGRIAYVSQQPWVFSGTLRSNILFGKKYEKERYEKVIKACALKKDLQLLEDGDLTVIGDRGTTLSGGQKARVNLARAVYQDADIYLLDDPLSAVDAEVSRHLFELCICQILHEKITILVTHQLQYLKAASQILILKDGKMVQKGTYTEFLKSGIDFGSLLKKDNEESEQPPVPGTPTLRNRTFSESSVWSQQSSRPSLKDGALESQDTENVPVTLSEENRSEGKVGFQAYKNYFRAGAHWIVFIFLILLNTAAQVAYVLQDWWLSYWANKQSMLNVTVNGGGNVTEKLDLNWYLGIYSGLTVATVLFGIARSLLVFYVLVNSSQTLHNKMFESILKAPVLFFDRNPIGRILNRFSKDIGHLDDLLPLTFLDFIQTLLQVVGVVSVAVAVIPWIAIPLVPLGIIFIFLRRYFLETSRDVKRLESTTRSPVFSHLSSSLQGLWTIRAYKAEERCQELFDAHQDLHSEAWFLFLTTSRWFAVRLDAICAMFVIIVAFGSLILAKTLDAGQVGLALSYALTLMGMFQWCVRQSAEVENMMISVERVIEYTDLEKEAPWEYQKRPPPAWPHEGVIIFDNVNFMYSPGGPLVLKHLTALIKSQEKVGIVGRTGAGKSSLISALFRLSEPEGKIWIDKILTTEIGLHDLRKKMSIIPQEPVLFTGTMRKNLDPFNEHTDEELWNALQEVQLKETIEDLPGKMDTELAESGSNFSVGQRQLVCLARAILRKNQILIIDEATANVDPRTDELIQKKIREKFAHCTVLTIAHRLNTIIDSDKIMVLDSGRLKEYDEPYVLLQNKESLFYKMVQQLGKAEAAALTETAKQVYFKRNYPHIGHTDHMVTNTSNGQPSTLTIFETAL
Put plainly: TP_TRANSPORTER: inhibition of E217betaG in the presence of Celecoxib at a concentration of 50uM in membrane vesicles from MRP4-expressing Sf9 cells. The class given is functional, cell membranes, Membrane vesicle. Particulars: sf9, 50 µM.

The target of data set [3] is T3, MRP4 (ATP-binding cassette sub-family C member 4) (Homo sapiens, UniProt O15439).
T3 sequence (O15439 whole entry): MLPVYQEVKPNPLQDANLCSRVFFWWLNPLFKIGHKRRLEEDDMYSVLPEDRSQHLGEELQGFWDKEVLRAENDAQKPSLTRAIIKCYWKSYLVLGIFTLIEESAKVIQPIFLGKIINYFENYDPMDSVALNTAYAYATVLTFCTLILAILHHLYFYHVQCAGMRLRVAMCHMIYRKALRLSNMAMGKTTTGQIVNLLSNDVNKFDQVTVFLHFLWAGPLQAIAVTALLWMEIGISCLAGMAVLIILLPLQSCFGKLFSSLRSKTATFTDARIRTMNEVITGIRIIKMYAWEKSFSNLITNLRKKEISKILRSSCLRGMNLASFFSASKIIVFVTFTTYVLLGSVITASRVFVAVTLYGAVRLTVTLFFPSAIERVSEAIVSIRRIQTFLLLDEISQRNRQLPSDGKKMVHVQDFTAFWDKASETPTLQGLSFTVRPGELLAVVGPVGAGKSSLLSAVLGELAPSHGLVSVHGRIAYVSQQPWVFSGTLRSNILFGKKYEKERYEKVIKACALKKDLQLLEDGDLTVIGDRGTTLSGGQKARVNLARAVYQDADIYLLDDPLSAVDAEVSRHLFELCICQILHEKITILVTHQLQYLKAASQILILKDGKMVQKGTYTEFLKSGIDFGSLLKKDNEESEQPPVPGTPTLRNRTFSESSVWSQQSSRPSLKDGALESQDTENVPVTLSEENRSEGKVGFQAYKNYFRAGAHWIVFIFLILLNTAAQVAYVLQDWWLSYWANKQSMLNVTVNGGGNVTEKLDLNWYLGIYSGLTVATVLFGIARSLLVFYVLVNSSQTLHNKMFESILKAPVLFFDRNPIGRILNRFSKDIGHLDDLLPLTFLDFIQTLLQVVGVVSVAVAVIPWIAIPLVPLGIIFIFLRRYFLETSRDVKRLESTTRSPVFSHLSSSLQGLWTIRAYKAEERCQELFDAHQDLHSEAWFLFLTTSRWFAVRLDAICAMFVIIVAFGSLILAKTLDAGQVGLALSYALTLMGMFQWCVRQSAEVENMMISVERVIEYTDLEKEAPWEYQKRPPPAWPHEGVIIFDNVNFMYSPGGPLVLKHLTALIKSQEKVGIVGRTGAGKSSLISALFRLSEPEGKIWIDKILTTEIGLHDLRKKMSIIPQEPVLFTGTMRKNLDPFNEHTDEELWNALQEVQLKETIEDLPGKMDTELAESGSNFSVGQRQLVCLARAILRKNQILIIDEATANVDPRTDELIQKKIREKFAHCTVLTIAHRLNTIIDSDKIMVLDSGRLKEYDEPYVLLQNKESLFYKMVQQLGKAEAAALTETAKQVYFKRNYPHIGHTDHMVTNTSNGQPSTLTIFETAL
Put plainly: TP_TRANSPORTER: inhibition of E217betaG in the presence of Diclofenac at a concentration of 100uM in membrane vesicles from MRP4-expressing Sf9 cells. The settings on record: probe E217betaG, read-out: Activity. In kind it is functional, cell membranes, Membrane vesicle.

Data set [4] deals with Multidrug resistance-associated protein 1 (Homo sapiens, UniProt P33527). Briefly: TP_TRANSPORTER: inhibition of E217betaG in the presence of Diclofenac at a concentration of 100uM in membrane vesicles from MRP1-expressing Sf9 cells. In kind it is functional, cell membranes, Membrane vesicle. The settings on record: sf9, 100 µM.
Data set [5] has as its target T1, MRP5 (ATP-binding cassette sub-family C member 5). Put plainly: TP_TRANSPORTER: inhibition of alaninyl-d4TMP by Prostaglandin E2 at a concentration of 20uM in membrane vesicle from MRP5-expressing HEK293 cells. In kind it is functional, cell membranes. Particulars: membrane vesicles from MRP5-expressing HEK293 cells, probe alaninyl-d4TMP, read-out: Activity.
Data set [6] addresses T2, ATP-binding cassette sub-family C member 4. Briefly: TP_TRANSPORTER: inhibition of alaninyl-d4TMP in the presence of Prostaglandin F2alpha at a concentration of 20uM in membrane vesicles from MRP4-expressing Sf9 cells. Particulars: sf9, 20 µM. In kind it is functional, cell membranes, Membrane vesicle.
Data set [7] addresses T1, MRP5 (ATP-binding cassette sub-family C member 5). Put plainly: TP_TRANSPORTER: inhibition of alaninyl-d4TMP by Prostaglandin F2alpha at a concentration of 20uM in membrane vesicle from MRP5-expressing HEK293 cells. In kind it is functional, cell membranes. The settings on record: membrane vesicles from MRP5-expressing HEK293 cells, probe alaninyl-d4TMP, read-out: Activity.

Data set [8] concerns the target T2, ATP-binding cassette sub-family C member 4. Put plainly: TP_TRANSPORTER: inhibition of E217betaG in the presence of Flurbiprofen at a concentration of 50uM in membrane vesicles from MRP4-expressing Sf9 cells. The class given is functional, cell membranes, Membrane vesicle. The settings on record: sf9, 50 µM.
For data set [9] the target is unchanged. Put plainly: TP_TRANSPORTER: inhibition of E217betaG in the presence of Ibuprofen at a concentration of 200uM in membrane vesicles from MRP4-expressing Sf9 cells. In kind it is functional, cell membranes, Membrane vesicle. Particulars: sf9, 200 µM.
For data set [10], the target named is MRP1 (Multidrug resistance-associated protein 1) (Homo sapiens, UniProt P33527). Put plainly: TP_TRANSPORTER: inhibition of E217betaG in the presence of Ibuprofen at a concentration of 200uM in membrane vesicles from MRP1-expressing Sf9 cells. In kind it is functional, cell membranes, Membrane vesicle. Particulars: probe E217betaG, read-out: Activity.

Each structure is given as a SMILES string.

T1 sequence (O15440 whole entry): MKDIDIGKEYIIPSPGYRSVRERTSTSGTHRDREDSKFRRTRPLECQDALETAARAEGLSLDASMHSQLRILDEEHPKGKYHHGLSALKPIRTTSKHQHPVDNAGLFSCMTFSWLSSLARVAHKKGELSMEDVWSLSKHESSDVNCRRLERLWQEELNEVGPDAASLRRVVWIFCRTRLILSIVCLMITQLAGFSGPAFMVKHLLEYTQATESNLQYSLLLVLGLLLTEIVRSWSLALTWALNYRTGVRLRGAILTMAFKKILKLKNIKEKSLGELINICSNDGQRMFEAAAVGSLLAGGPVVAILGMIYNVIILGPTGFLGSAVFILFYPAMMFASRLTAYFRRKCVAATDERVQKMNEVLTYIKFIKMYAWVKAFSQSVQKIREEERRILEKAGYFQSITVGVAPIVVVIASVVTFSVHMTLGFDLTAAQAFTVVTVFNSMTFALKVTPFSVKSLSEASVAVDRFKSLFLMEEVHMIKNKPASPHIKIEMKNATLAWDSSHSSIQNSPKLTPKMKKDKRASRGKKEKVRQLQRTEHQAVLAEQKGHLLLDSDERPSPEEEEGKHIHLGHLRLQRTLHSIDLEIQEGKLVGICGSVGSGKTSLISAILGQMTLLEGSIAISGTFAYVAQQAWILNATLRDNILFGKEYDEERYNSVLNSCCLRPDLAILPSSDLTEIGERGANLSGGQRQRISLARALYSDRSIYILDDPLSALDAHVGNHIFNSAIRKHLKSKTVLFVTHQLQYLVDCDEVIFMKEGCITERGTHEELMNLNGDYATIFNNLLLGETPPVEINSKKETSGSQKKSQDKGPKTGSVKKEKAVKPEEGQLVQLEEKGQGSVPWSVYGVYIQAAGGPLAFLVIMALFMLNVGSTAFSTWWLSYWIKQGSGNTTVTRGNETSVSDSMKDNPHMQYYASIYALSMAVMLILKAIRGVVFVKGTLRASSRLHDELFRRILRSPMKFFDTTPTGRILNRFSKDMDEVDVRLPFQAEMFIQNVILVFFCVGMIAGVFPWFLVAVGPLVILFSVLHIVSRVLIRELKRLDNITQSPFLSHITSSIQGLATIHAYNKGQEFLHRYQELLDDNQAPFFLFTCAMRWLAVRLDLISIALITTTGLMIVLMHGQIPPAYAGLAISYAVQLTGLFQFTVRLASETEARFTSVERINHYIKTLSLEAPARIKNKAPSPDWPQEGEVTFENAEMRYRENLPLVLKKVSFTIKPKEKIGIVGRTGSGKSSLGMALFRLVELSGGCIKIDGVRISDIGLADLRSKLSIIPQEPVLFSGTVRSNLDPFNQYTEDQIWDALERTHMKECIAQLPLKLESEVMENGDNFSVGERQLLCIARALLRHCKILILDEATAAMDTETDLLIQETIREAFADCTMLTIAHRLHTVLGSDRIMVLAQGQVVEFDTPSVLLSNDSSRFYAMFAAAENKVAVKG
Multidrug resistance-associated protein 1, sequence (P33527 whole entry): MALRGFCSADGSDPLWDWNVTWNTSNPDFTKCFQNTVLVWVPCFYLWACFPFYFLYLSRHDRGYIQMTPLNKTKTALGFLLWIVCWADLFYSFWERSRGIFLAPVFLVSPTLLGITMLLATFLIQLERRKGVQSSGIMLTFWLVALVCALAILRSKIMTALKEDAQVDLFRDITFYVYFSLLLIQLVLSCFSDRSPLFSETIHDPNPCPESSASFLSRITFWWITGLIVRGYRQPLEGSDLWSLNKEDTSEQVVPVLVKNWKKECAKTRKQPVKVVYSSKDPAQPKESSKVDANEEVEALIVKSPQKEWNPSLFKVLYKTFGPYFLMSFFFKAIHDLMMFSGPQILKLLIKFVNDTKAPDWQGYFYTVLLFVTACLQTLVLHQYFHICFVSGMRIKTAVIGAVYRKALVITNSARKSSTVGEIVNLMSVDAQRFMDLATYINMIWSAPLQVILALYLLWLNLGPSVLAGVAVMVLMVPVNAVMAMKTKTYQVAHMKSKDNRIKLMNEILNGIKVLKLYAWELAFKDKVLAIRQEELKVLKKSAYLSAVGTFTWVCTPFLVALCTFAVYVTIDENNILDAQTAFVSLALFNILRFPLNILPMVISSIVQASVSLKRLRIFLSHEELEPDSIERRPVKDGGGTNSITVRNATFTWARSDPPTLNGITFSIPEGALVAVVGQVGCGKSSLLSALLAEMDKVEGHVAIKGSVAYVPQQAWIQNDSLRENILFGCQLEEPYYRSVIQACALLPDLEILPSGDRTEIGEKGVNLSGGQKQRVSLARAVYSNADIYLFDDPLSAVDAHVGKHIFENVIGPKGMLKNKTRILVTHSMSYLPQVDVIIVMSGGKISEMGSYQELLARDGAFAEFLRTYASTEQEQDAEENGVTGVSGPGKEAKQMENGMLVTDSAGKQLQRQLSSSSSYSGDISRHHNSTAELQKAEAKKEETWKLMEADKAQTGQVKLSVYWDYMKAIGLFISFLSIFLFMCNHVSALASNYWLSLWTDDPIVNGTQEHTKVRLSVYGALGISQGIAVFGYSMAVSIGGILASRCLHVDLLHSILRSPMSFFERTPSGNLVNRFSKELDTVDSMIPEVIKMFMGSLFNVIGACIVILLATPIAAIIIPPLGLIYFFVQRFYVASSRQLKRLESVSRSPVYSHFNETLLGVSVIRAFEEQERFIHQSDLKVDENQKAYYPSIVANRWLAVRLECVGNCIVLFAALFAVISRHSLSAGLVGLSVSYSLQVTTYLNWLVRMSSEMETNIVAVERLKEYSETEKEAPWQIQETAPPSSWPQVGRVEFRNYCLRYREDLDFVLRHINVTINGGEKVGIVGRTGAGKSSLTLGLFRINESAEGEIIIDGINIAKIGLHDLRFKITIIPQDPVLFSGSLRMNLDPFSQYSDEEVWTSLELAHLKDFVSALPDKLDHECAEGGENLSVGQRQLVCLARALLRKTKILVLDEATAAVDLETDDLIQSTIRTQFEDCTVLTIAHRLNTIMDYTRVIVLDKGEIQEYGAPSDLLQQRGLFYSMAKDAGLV
MRP1 (Multidrug resistance-associated protein 1), sequence (P33527 whole entry): as above

Turning to `CCCCC[C@H](O)/C=C/[C@H]1[C@H](O)CC(=O)[C@@H]1CCCCCCC(=O)O` [ALPROSTADIL], the activity at 20 µM in [1] was 69%.

`Cc1ccc(-c2cc(C(F)(F)F)nn2-c2ccc(S(N)(=O)=O)cc2)cc1` [CELECOXIB]: the Activity in [2] is on record as 78%.

Turning to `O=C(O)Cc1ccccc1Nc1c(Cl)cccc1Cl` [DICLOFENAC], in data set [3], the activity at 100 µM is 61%. Besides, the Activity in [4] is listed as 82%. Take `CCCCC[C@H](O)/C=C/[C@H]1[C@H](O)CC(=O)[C@@H]1C/C=C\CCCC(=O)O` [DINOPROSTONE]: in data set [5], the activity at 20 µM stood at 74%. Consider `CCCCC[C@H](O)/C=C/[C@@H]1[C@@H](C/C=C\CCCC(=O)O)[C@@H](O)C[C@H]1O` [DINOPROST], for which, in [6], the Activity worked out at 15%. Moreover, the activity at 20 µM in data set [7] worked out at 63%. Turning to `CC(C(=O)O)c1ccc(-c2ccccc2)c(F)c1` (stereo not given) [FLURBIPROFEN], the Activity in data set [8] was found to be 23%. Regarding `CC(C)Cc1ccc(C(C)C(=O)O)cc1` (stereo not given) [IBUPROFEN], the Activity in [9] came to 31%. In data set [10], the activity at 200 µM was found to be 79%.
